From patent US9976141B2, “Compositions and methods for inhibiting gene expression of Hif2alpha” (Arrowhead Madison Inc., priority 2015, dated 2018) come the findings set out here.

The data set has as its system human (tumor) Hif2α (EPAS1) mRNA. The data set can be described thus: Hif2α knockdown in orthotopic RCC tumor bearing mice, single injection of RNAi trigger-delivery polymer conjugate, RT-qPCR (Table 7). It counts as in vivo. To be noted: single tail vein injection, relative to isotonic glucose. The gist of the method:
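Female athymic nude mice carried orthotopic A498-SEAP ccRCC kidney tumours, used 5–6 weeks after implantation. They received one tail-vein injection of RGD-targeted Hif2α RNAi trigger–polymer conjugate or isotonic glucose. Tumour Hif2α mRNA was measured by TaqMan RT-qPCR normalised to CycA (ΔΔCT) and expressed relative to glucose-treated mice.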
For orientation: In qPCR the cycle at which signal appears reflects the starting amount.

Where [1] appears, read: RNAi trigger 50 μg, polymer 064 125 μg.
Setting [2] is: RNAi trigger 100 μg, polymer 064 250 μg.

In the case of “AD01034 (antisense TAAGUUAAGCUCCCAUACATT; sense UGUAUGGGAGCUUAACUUAT; Hif2alpha RNAi agent antisense strand; modified_base 2,4,6,8,10,12,14,16,18 /mod_base = “2′-deoxy-2′-fluoro corresponding nucleoside”; modified_base 3,5,7,9,11,13,15,17,19 /mod_base = “2′-O-methyl corresponding nucleoside”; modified_base 21 /mod_base = “5′-phosphorothioate corresponding nucleotide”; Hif2alpha RNAi agent sense strand; modified_base 1,3,5,7,9,11,13,15,17,19 /mod_base = “2′-deoxy-2′-fluoro corresponding nucleoside”; modified_base 2,4,6,8,10,12,14,16,18 /mod_base = “2′-O-methyl corresponding nucleoside”; modified_base 20 /mod_base = “3′-3′-linked nucleotide”; modified_base 1 /mo)”, the “Relative Expression day 4 (Hif2α mRNA in kidney tumor)” value (RNAi trigger 80 μg, polymer 126 400 μg) is given as 0.35.

Consider “AD01655 (antisense TUUCAUGAAAUCGUUACGUTT; sense ACGUAACGAUUUCAUGAAAT; Hif2alpha RNAi agent antisense strand; modified_base 2,4,6,8,10,13,14,16,18 /mod_base = “2′-deoxy-2′-fluoro corresponding nucleoside”; modified_base 3,5,7,9,11,12,15,17,19 /mod_base = “2′-O-methyl corresponding nucleoside”; modified_base 2,21 /mod_base = “5′-phosphorothioate corresponding nucleotide”; Hif2alpha RNAi agent sense strand; modified_base 1,3,5,8,9,11,13,15,17,19 /mod_base = “2′-deoxy-2′-fluoro corresponding nucleoside”; modified_base 2,4,6,7,10,12,14,16,18 /mod_base = “2′-O-methyl corresponding nucleoside”; modified_base 20 /mod_base = “3′-3′-linked nucleotide”; modified_base 1 /)”, for which the “Relative Expression day 4 (Hif2α mRNA in kidney tumor)” value (RNAi trigger 100 μg, polymer 100A 250 μg) turned out to be 0.234.

Regarding “AD03254 (antisense AUUCAUGAAAUCGUUACGUUG; sense ACGUAACGAUUUCAUGAAUT; Hif2alpha RNAi agent antisense strand; modified_base 2,4,6,8,14 /mod_base = “2′-deoxy-2′-fluoro corresponding nucleoside”; modified_base 1,3,5,7,9,10,11,12,13,15,16,17,18,19,20,21 /mod_base = “2′-O-methyl corresponding nucleoside”; modified_base 2,3,20,21 /mod_base = “5′-phosphorothioate corresponding nucleotide”; Hif2alpha RNAi agent sense strand; modified_base 7,8,9 /mod_base = “2′-deoxy-2′-fluoro corresponding nucleoside”; modified_base 1,2,3,4,5,6,10,11,12,13,14,15,16,17,18,19 /mod_base = “2′-O-methyl corresponding nucleoside”; modified_base 20 /mod_base = “3′-3′-linked nucleotide”; modi)”, under setting [1], the “Relative Expression day 4 (Hif2α mRNA in kidney tumor)” value was 0.295. In the case of “AD01893 (antisense UGUAAAACAAUUGUGUACUTT; sense AGUACACAAUUGUUUUACAT; Hif2alpha RNAi agent antisense strand; modified_base 2,4,6,8,10,12,14,15,18 /mod_base = “2′-deoxy-2′-fluoro corresponding nucleoside”; modified_base 1,3,5,7,9,11,13,16,17,19 /mod_base = “2′-O-methyl corresponding nucleoside”; modified_base 2,3,21 /mod_base = “5′-phosphorothioate corresponding nucleotide”; Hif2alpha RNAi agent sense strand; modified_base 3,4,7,9,11,13,17 /mod_base = “2′-deoxy-2′-fluoro corresponding nucleoside”; modified_base 1,2,5,6,8,10,12,14,15,16,18,19 /mod_base = “2′-O-methyl corresponding nucleoside”; modified_base 20 /mod_base = “3′-3′-linked nucleotide”; modified_base)”, under setting [2], the “Relative Expression day 4 (Hif2α mRNA in kidney tumor)” value was 0.115. With “AD01523 (antisense TUUCAUGAAAUCGUUACGUTT; sense ACGUAACGAUUUCAUGAAAT; Hif2alpha RNAi agent antisense strand; modified_base 2,4,6,8,10,13,14,16,18 /mod_base = “2′-deoxy-2′-fluoro corresponding nucleoside”; modified_base 3,5,7,9,11,12,15,17,19 /mod_base = “2′-O-methyl corresponding nucleoside”; modified_base 21 /mod_base = “5′-phosphorothioate corresponding nucleotide”; Hif2alpha RNAi agent sense strand; modified_base 1,3,5,8,9,11,13,15,17,19 /mod_base = “2′-deoxy-2′-fluoro corresponding nucleoside”; modified_base 2,4,6,7,10,12,14,16,18 /mod_base = “2′-O-methyl corresponding nucleoside”; modified_base 20 /mod_base = “3′-3′-linked nucleotide”; modified_base 1 /mo)”, the “Relative Expression day 4 (Hif2α mRNA in kidney tumor)” value (RNAi trigger 115 μg, polymer 100A 375 μg) turned out to be 0.49. Consider “AD01891 (antisense UGUAAAACAAUUGUGUACUTT; sense AGUACACAAUUGUUUUACAT; Hif2alpha RNAi agent antisense strand; modified_base 2,4,6,8,10,13,14,16,18 /mod_base = “2′-deoxy-2′-fluoro corresponding nucleoside”; modified_base 1,3,5,7,9,11,12,15,17,19 /mod_base = “2′-O-methyl corresponding nucleoside”; modified_base 2,3,21 /mod_base = “5′-phosphorothioate corresponding nucleotide”; Hif2alpha RNAi agent sense strand; modified_base 3,5,8,9,11,13,17 /mod_base = “2′-deoxy-2′-fluoro corresponding nucleoside”; modified_base 1,2,4,6,7,10,12,14,15,16,18,19 /mod_base = “2′-O-methyl corresponding nucleoside”; modified_base 20 /mod_base = “3′-3′-linked nucleotide”; modified_base)”, for which, under setting [2], the “Relative Expression day 4 (Hif2α mRNA in kidney tumor)” value came out at 0.189.

With “AD03259 (antisense AUUCAUGAAAUCGUUACGUTG; sense ACGUAACGAUUUCAUGAATT; Hif2alpha RNAi agent antisense strand; modified_base 2,8,10,14 /mod_base = “2′-deoxy-2′-fluoro corresponding nucleoside”; modified_base 1,3,4,5,6,7,9,11,12,13,15,16,17,18,19 /mod_base = “2′-O-methyl corresponding nucleoside”; modified_base 20,21 /mod_base = “2′-MOE nucleotide”; modified_base 2,3,20,21 /mod_base = “5′-phosphorothioate corresponding nucleotide”; Hif2alpha RNAi agent sense strand; modified_base 7,8,9 /mod_base = “2′-deoxy-2′-fluoro corresponding nucleoside”; modified_base 1,2,3,4,5,6,10,11,12,13,14,15,16,17 /mod_base = “2′-O-methyl corresponding nucleoside”; modified_base 20 /m)”, the “Relative Expression day 4 (Hif2α mRNA in kidney tumor)” value under setting [1] turned out to be 0.179. As for “AD01888 (antisense UCUAGCAACAAAACCUUAATT; sense UUAAGGUUUUGUUGCUAGAT; Hif2alpha RNAi agent antisense strand; modified_base 2,4,6,8,10,12,14,15,18 /mod_base = “2′-deoxy-2′-fluoro corresponding nucleoside”; modified_base 1,3,5,7,9,11,13,16,17,19 /mod_base = “2′-O-methyl corresponding nucleoside”; modified_base 2,3,21 /mod_base = “5′-phosphorothioate corresponding nucleotide”; Hif2alpha RNAi agent sense strand; modified_base 1,3,4,7,9,11,13,15,17,19 /mod_base = “2′-deoxy-2′-fluoro corresponding nucleoside”; modified_base 2,5,6,8,10,12,14,16,18 /mod_base = “2′-O-methyl corresponding nucleoside”; modified_base 20 /mod_base = “3′-3′-linked nucleotide”; modified_base)”, the “Relative Expression day 4 (Hif2α mRNA in kidney tumor)” value under setting [2] came to 0.209. On to “AD01405 (antisense TUUCAUGAAAUCGUUACGUCGGCUAU; sense UAUAUCGACGUAACGAUUUCAUGAAA; Hif2alpha RNAi agent antisense strand; modified_base 25 modified base = “2′-hydroxy corresponding nucleoside”; modified_base 2,4,6,10,12,14,16,18,20 /mod_base = “2′-deoxy-2′-fluoro corresponding nucleoside”; modified_base 3,5,7,9,11,13,15,17,19,21,22,23,24,26 /mod_base = “2′-O-methyl corresponding nucleoside”; modified_base 8 /mod_base = “2′-3′ seco corresponding nucleotide”; modified_base 2,3,23,; Hif2alpha RNAi agent sense strand; modified_base 2,4 modified base = “2′-hydroxy corresponding nucleoside”; modified_base 6,8,10,12,14,16,18,20,22,24,26 /mod_base = “2′-deoxy-2′-fluoro correspondi)”, for which, where the note is “RNAi trigger 150 μg, polymer 100A 300 μg”, the “Relative Expression day 4 (Hif2α mRNA in kidney tumor)” value came to 0.51.
